Data from BindingDB's records for doi:10.1021/acs.jmedchem.0c01160 (University of Groningen, 2020).

Molecular target: T1, Macrophage migration inhibitory factor (Homo sapiens, UniProt P14174)
T1 sequence (P14174 whole entry): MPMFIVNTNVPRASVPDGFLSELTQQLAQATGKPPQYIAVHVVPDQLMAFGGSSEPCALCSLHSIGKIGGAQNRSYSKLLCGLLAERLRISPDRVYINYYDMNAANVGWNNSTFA
Experiment: Inhibition of C-terminal His-tagged recombinant human MIF expressed in Escherichia coli BL21 (DE3) using 4-HPP as substrate preincubated for 10 mins followed by substrate addition by UV absorption spectrum analysis

IC50: 71 nM
Compound: O=C(O)c1ccc(-c2ccc(-c3cc4ccc(O)cc4oc3=O)cc2)cc1
